This note sets out measurements from patent US8916702B2 (priority 2012, dated 2014).

The test system of this test is HCV pseudoparticles (genotype 1a HCV E1 and E2 envelope, H77C isolate). Briefly: microbe, parasite or virus in culture. Conditions: Hepatitis C virus. The format is cell-based.
Setting [1] is: Huh-7, 48 h, read-out: Activity (EC50 class), HCV pseudoparticle infection of Huh7 cells, luciferase 2 days after infection, EC50 expressed as class A/B.
[2] abbreviates: Huh-7, 48 h, HCV pseudoparticle infection of Huh7 cells, luciferase 2 days after infection, average of duplicates.
[3] abbreviates: Huh-7, read-out: Activity (EC50 class), HCV pseudoparticles (genotype 1a, H77C) in Huh7 cells, EC50 expressed as class A/B.
Where [4] appears, read: Huh-7, 48 h, HCV pseudoparticles, Huh7 cells, luciferase 2 days after infection, average of duplicates.
[5] abbreviates: Huh-7, 48 h, read-out: Activity (EC50 class), HCV pseudoparticles, Huh7 cells, luciferase 2 days after infection, average of duplicates.
[6] abbreviates: Huh-7, 48 h, HCV pseudoparticles (genotype 1a, H77C) in Huh7 cells, average of duplicate, luciferase 2 days after infection.

Where two headings read alike, the source gives them in different places.

In general, EC50 refers to the concentration giving half of the maximal effect. Take `COC(=O)[C@H](CNC(=O)C(=O)NC1CCCC(C)C1)NC(=O)c1ccc(Nc2nc(NC3(c4ccc(Cl)cc4)CC3)nc(OCC(F)(F)F)n2)cc1` (some centres unmarked) [Compound 1059]: the EC50 under setting [1] lay in the range of 0.01 to 10 nM.

For the compound `Cc1ccc(CCNC(=O)C(=O)NC[C@H](NC(=O)c2ccc(Nc3nc(NC4(c5ccc(Cl)cc5)CC4)nc(OCC(F)(F)F)n3)cc2)C(=O)O)cc1` [Compound 1404], under setting [1], the EC50 fell in the range of 0.01 to 10 nM.

Regarding `CC(C)(CNC(=O)C(=O)Nc1cccc(CCC(=O)O)c1)CNC(=O)c1ccc(Nc2nc(NC3(c4ccc(Cl)cc4)CC3)nc(OCC(F)(F)F)n2)cc1` [Compound 1482], the EC50 by setting is: under setting [2], 0.17 nM; under setting [1], 0.01 to 10 nM.

For `COC(=O)[C@H](CCNC(=O)C(=O)NC(C)C1CC1)NC(=O)c1ccc(Nc2nc(NC3(c4ccc(Cl)cc4)CC3)nc(OCC(F)(F)F)n2)cc1` (some centres unmarked) [Compound 1417], the EC50 was 0.16 nM under setting [2] and 0.01 to 10 nM under setting [1].

As for `O=C(NC[C@H](NC(=O)c1ccc(Nc2nc(NC3(c4ccc(Cl)cc4)CC3)nc(OCC(F)(F)F)n2)cc1)C(=O)O)C(=O)NC1CCCC1` [Compound 1037], under setting [1], the EC50 lay within 0.01 to 10 nM.

Take `COC(=O)[C@H](CCNC(=O)C(=O)Nc1ccc(-c2ccc(C)cc2)cc1)NC(=O)c1ccc(Nc2nc(NC3(c4ccc(Cl)cc4)CC3)nc(OCC(F)(F)F)n2)cc1` [Compound 3305]: the EC50 under setting [3] lay within 0.01 to 10 nM.

Take `COC(=O)[C@H](CNC(=O)C(=O)NC1CCC(F)(F)CC1)NC(=O)c1ccc(Nc2nc(NC3(c4ccc(Cl)cc4)CC3)nc(OCC(F)(F)F)n2)cc1` [Compound 1057]: the EC50 under setting [1] was 0.01 to 10 nM.

As to `CC(C)(CNC(=O)C(=O)Nc1ccc(Cl)cc1C#N)CNC(=O)c1ccc(Nc2nc(NC3(c4ccc(Cl)cc4)CC3)nc(OCC(F)(F)F)n2)cc1` [Compound 3384], the EC50 under setting [3] was 0.01 to 10 nM.

In the case of `CC(C)(CNC(=O)C(=O)Nc1cccc(C(=O)N2CCCCC2)c1)CNC(=O)c1ccc(Nc2nc(NC3(c4ccc(Cl)cc4)CC3)nc(OCC(F)(F)F)n2)cc1` [Compound 1574], under setting [1], the EC50 is 0.01 to 10 nM.

Regarding `CC(C)c1cccc(NC(=O)C(=O)NC[C@H](NC(=O)c2ccc(Nc3nc(NC4(c5ccc(Cl)cc5)CC4)nc(OCC(F)(F)F)n3)cc2)C(=O)O)c1` [Compound 3758], the EC50 reads like this: under setting [4], 0.54 nM; under setting [5], 0.01 to 10 nM.

Take `COC(=O)[C@H](CCNC(=O)C(=O)N[C@H]1C[C@H]2C3C2[C@]31C)NC(=O)c1ccc(Nc2nc(NC3(c4ccc(Cl)cc4)CC3)nc(OCC(F)(F)F)n2)cc1` (some centres unmarked) [Compound 1100]: under setting [1], the EC50 lay within 0.01 to 10 nM.

For `COC(=O)[C@H](CCNC(=O)C(=O)Nc1cccnc1OC)NC(=O)c1ccc(Nc2nc(NC3(c4ccc(Cl)cc4)CC3)nc(OCC(F)(F)F)n2)cc1` [Compound 1216], the EC50 under setting [1] lay within 0.01 to 10 nM.

Take `CC(=O)Nc1ccc(NC(=O)C(=O)NCC[C@H](NC(=O)c2ccc(Nc3nc(NC4(c5ccc(Cl)cc5)CC4)nc(OCC(F)(F)F)n3)cc2)C(=O)O)cn1` [Compound 3631]: the EC50 under setting [5] is 0.01 to 10 nM.

For `COc1cccc(NC(=O)C(=O)NCC(C)(C)CNC(=O)c2ccc(Nc3nc(NC4(c5ccc(Cl)cc5)CC4)nc(OCC(F)(F)F)n3)cc2)n1` [Compound 3252], the EC50 under setting [3] is 0.01 to 10 nM.

As to `CC(C)(CNC(=O)C(=O)Nc1ccc(C#N)cc1)CNC(=O)c1ccc(Nc2nc(NC3(c4ccc(Cl)cc4)CC3)nc(OCc3ccc(OC(F)(F)F)cc3)n2)cc1` [Compound 3852], the EC50 under setting [5] was 0.01 to 10 nM.

Consider `O=C(NCCCCNC(=O)c1ccc(Nc2nc(NC3(c4ccc(Cl)cc4)CC3)nc(OCC(F)(F)F)n2)cc1)C(=O)Nc1ccc(F)cc1` [Compound 3395], for which, under setting [3], the EC50 is 0.01 to 10 nM.

As for `COc1cc(OC)nc(-c2ccc(NC(=O)C(=O)NC[C@H](NC(=O)c3ccc(Nc4nc(NC5(c6ccc(Cl)cc6)CC5)nc(OCC(F)(F)F)n4)cc3)C(=O)O)cc2)n1` [Compound 3270], under setting [3], the EC50 lay within 0.01 to 10 nM.

As for `COC(=O)[C@H](CNC(=O)C(=O)NCc1ccc(OC)cc1)NC(=O)c1ccc(Nc2nc(NC3(c4ccc(Cl)cc4)CC3)nc(OCC(F)(F)F)n2)cc1` [Compound 1153], under setting [1], the EC50 lay within 0.01 to 10 nM.

For `COC(=O)[C@H](CNC(=O)C(=O)NCc1ccc(OC)cc1OC)NC(=O)c1ccc(Nc2nc(NC3(c4ccc(Cl)cc4)CC3)nc(OCC(F)(F)F)n2)cc1` [Compound 1137], the EC50 under setting [1] is 0.01 to 10 nM.

Consider `CC(C)(CNC(=O)C(N)=O)CNC(=O)c1ccc(Nc2nc(NC3(c4ccccc4)CC3)nc(OCC(F)(F)F)n2)cc1` [Compound 3244], for which the EC50 is 0.07 nM under setting [6] and 0.01 to 10 nM under setting [3].

Turning to `COC(=O)[C@H](CNC(=O)C(=O)Nc1cccc(OC(F)F)c1)NC(=O)c1ccc(Nc2nc(NC3(c4ccc(Cl)cc4)CC3)nc(OCC(F)(F)F)n2)cc1` [Compound 3708], the EC50 under setting [5] was 0.01 to 10 nM.

On to `O=C(NC[C@H](NC(=O)c1ccc(Nc2nc(NC3(c4ccc(Cl)cc4)CC3)nc(OCC(F)(F)F)n2)cc1)C(=O)O)C(=O)NC1CCCC(O)C1` (some centres unmarked) [Compound 1086], for which the EC50 under setting [1] was 0.01 to 10 nM.

With `COC(=O)[C@@H](CCNC(=O)C(=O)NCC1(Cn2ccnc2)CC1)NC(=O)c1ccc(Nc2nc(NC3(c4ccc(Cl)cc4)CC3)nc(OCC(F)(F)F)n2)cc1` [Compound 1385], the EC50 under setting [1] lay in the range of 0.01 to 10 nM.

As to `O=C(NCC[C@H](NC(=O)c1ccc(Nc2nc(NC3(c4ccc(Cl)cc4)CC3)nc(OCC(F)(F)F)n2)cc1)C(=O)O)C(=O)NCC1CCc2ccccc21` (some centres unmarked) [Compound 1345], the EC50 under setting [1] lay within 0.01 to 10 nM.

Regarding `COC(=O)[C@H](CCNC(=O)C(=O)Nc1ccc(OC(F)F)cc1)NC(=O)c1ccc(Nc2nc(NC3(c4ccc(Cl)cc4)CC3)nc(OCC(F)(F)F)n2)cc1` [Compound 3332], the EC50 under setting [3] was in the range of 0.01 to 10 nM.

On to `CC(C)(CNC(=O)C(=O)Nc1ccccc1C1CC1)CNC(=O)c1ccc(Nc2nc(NC3(c4ccc(Cl)cc4)CC3)nc(OCC(F)(F)F)n2)cc1` [Compound 3076], for which the EC50 under setting [3] lay within 0.01 to 10 nM.

As to `Cc1ccc(NC(=O)C(=O)NCC(C)(C)CNC(=O)c2ccc(Nc3nc(NC4(c5ccc(Cl)cc5)CC4)nc(OCc4ccc(C(C)C)cc4)n3)cc2)cc1` [Compound 3839], the 50% effective concentration (EC50) under setting [4] was 0.078 nM and the EC50 under setting [5] is 0.01 to 10 nM.

For `CONC(=O)C(=O)NCC(C)(C)CNC(=O)c1ccc(Nc2nc(NC3(c4ccc(Cl)cc4)CC3)nc(OCC(F)(F)F)n2)cc1` [Compound 3002], the EC50 runs as follows: under setting [6], 0.044 nM; under setting [3], 0.01 to 10 nM.

On to `NC(=O)C(=O)N1CCCC(C(NC(=O)c2ccc(Nc3nc(NC4(c5ccc(Cl)cc5)CC4)nc(OCC(F)(F)F)n3)cc2)C(=O)O)C1` (centres unmarked) [Compound 1018, 2-(1-(2-amino-2-oxoacetyl)piperidin-3-yl)-2-(4-(4-(1-(4-chlorophenyl)cyclopropylamino)-6-(2,2,2-trifluoroethoxy)-1,3,5-triazin-2-ylamino)benzamido)acetic acid], for which, under setting [1], the EC50 is 0.01 to 10 nM.

Turning to `Cn1cnnc1-c1cccc(NC(=O)C(=O)NCC[C@H](NC(=O)c2ccc(Nc3nc(NC4(c5ccc(Cl)cc5)CC4)nc(OCC(F)(F)F)n3)cc2)C(=O)O)c1` [Compound 3643], the EC50 under setting [5] was 10 to 1000 nM.

For `COC(=O)[C@H](CCNC(=O)C(=O)NC1(Cc2ccccc2)CC1)NC(=O)c1ccc(Nc2nc(NC3(c4ccc(Cl)cc4)CC3)nc(OCC(F)(F)F)n2)cc1` [Compound 1325], the EC50 under setting [1] lay within 0.01 to 10 nM.

`O=C(NCc1ccc(F)cc1)C(=O)N1CCCC(CNC(=O)c2ccc(Nc3nc(NC4(c5ccc(Cl)cc5)CC4)nc(OCC(F)(F)F)n3)cc2)C1` (centres unmarked) [Compound 3483]: under setting [3], the EC50 fell in the range of 0.01 to 10 nM.

As for `COC(=O)[C@H](CNC(=O)C(=O)NCc1ccccc1OC)NC(=O)c1ccc(Nc2nc(NC3(c4ccc(Cl)cc4)CC3)nc(OCC(F)(F)F)n2)cc1` [Compound 1150], under setting [1], the EC50 lay within 0.01 to 10 nM.

Consider `O=C(NCCCCNC(=O)c1ccc(Nc2nc(NC3(c4ccc(Cl)cc4)CC3)nc(OCC(F)(F)F)n2)cc1)C(=O)Nc1cc(F)cc(F)c1` [Compound 3396], for which the EC50 under setting [3] was 0.01 to 10 nM.

Take `O=C(NC[C@H](NC(=O)c1ccc(Nc2nc(NC3(c4ccc(Cl)cc4)CC3)nc(OCC(F)(F)F)n2)cc1)C(=O)O)C(=O)Nc1cccc(Oc2ccccc2)c1` [Compound 3750]: the EC50 under setting [5] is 0.01 to 10 nM.

On to `CC1CC(NC(=O)C(=O)NC[C@H](NC(=O)c2ccc(Nc3nc(NC4(c5ccc(Cl)cc5)CC4)nc(OCC(F)(F)F)n3)cc2)C(=O)O)CC(C)(C)C1` (some centres unmarked) [Compound 1088], for which the EC50 under setting [1] was 0.01 to 10 nM.

Take `O=C(NCC[C@H](NC(=O)c1ccc(Nc2nc(NC3(c4ccc(Cl)cc4)CC3)nc(OCC(F)(F)F)n2)cc1)C(=O)O)C(=O)Nc1cccc(C(=O)c2ccccc2)c1` [Compound 3618]: the EC50 under setting [5] was 0.01 to 10 nM.

Consider `CC(C)(Cc1ccc(F)cc1)NC(=O)C(=O)NCC[C@H](NC(=O)c1ccc(Nc2nc(NC3(c4ccc(Cl)cc4)CC3)nc(OCC(F)(F)F)n2)cc1)C(=O)O` [Compound 1340], for which the EC50 runs as follows: under setting [2], 0.1 nM; under setting [1], 0.01 to 10 nM.

In the case of `CC(C)(CNC(=O)C(N)=O)CNC(=O)c1ccc(Nc2nc(NC3(c4ccc(Cl)cc4)CC3)nc(OCC(F)(F)F)n2)cc1F` [Compound 3388, N^1-(3-(4-((4-((1-(4-chlorophenyl)cyclopropyl)amino)-6-(2,2,2-trifluoroethoxy)-1,3,5-triazin-2-yl)amino)-2-fluorobenzamido)-2,2-dimethylpropyl)oxalamide], the EC50 runs as follows: under setting [6], 0.013 nM; under setting [3], 0.01 to 10 nM.

For the compound `COC(=O)[C@H](CNC(=O)C(=O)Nc1cccc(S(=O)(=O)c2ccccc2)c1)NC(=O)c1ccc(Nc2nc(NC3(c4ccc(Cl)cc4)CC3)nc(OCC(F)(F)F)n2)cc1` [Compound 3701], the EC50 under setting [5] is 0.01 to 10 nM.

Consider `COC(=O)[C@H](CCNC(=O)C(=O)Nc1ccc(OC)cc1)NC(=O)c1ccc(Nc2nc(NC3(c4ccc(Cl)cc4)CC3)nc(OCC(F)(F)F)n2)cc1` [Compound 1232], for which, under setting [1], the EC50 lay within 0.01 to 10 nM.

Take `CC(C)(CNC(=O)C(=O)Nc1ccc2ncsc2c1)CNC(=O)c1ccc(Nc2nc(NC3(c4ccc(Cl)cc4)CC3)nc(OCC(F)(F)F)n2)cc1` [Compound 3340]: the EC50 under setting [3] lay in the range of 0.01 to 10 nM.
